What follows are compounds tested against Carbonic anhydrase 12 (Homo sapiens, UniProt O43570).
Sequence of Carbonic anhydrase 12 (O43570 whole entry): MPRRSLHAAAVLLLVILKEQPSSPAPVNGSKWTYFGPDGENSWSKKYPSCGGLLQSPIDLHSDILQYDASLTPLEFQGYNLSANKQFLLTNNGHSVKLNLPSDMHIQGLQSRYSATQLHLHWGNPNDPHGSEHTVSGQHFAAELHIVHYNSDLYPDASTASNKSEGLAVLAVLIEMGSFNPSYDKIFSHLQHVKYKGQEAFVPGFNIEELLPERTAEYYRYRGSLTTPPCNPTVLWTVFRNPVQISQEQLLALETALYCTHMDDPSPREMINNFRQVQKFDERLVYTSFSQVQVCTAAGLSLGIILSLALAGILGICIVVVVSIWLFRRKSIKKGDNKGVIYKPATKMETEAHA
Description: Inhibition of human carbonic anhydrase 12-mediated CO2 hydration preincubated for 10 mins by stopped-flow assay
In the case of `COC(=O)c1cn(-c2ccc(S(N)(=O)=O)cc2)nc1-c1ccc(Br)cc1`, the Ki is reported as 43.7 nM.

What follows are compounds tested against Carbonic anhydrase 9 (Homo sapiens, UniProt Q16790).
Description: Inhibition of human carbonic anhydrase 9-mediated CO2 hydration preincubated for 10 mins by stopped-flow assay
`NC(=O)c1cn(-c2ccc(S(N)(=O)=O)cc2)nc1-c1ccc(F)cc1` showed a Ki of 2.3 nM. For `NC(=O)c1cn(-c2ccc(S(N)(=O)=O)cc2)nc1-c1ccc([N+](=O)[O-])cc1`, the Ki was 49 nM. With `NC(=O)c1cn(-c2ccc(S(N)(=O)=O)cc2)nc1-c1cccs1` the Ki was 2.1 nM. `COC(=O)c1cn(-c2ccc(S(N)(=O)=O)cc2)nc1-c1ccc(Cl)cc1` gave a Ki of 17.1 nM. `COC(=O)c1cn(-c2ccc(S(N)(=O)=O)cc2)nc1-c1ccc([N+](=O)[O-])cc1` was tested, and the Ki was 5.2 nM. For `NC(=O)c1cn(-c2ccc(S(N)(=O)=O)cc2)nc1-c1ccc(Cl)cc1`, the Ki was 5.2 nM.

— ChEMBL document CHEMBL3124744, “4-Functionalized 1,3-diarylpyrazoles bearing benzenesulfonamide moiety as selective potent inhibitors of the tumor associated carbonic anhydrase isoforms IX and XII” (Eur J Med Chem, 2014)
